Measurements reported in patent US7449463B2, “Morpholinyl containing benzimidazoles as inhibitors of respiratory syncytial virus replication” (Tibotec Pharmaceuticals Ltd., priority 2003, dated 2008).

What was measured:
[1] = test system: Respiratory Syncytial Virus; experiment: microbe, parasite or virus in culture; assay type: cell-based; settings: for EC50: human respiratory syncytial virus, 168 h
Source text: In vitro Screening for Activity against Respiratory Syncytial Virus.
The percent protection against cytopathology caused by viruses (antiviral activity or EC50) achieved by tested compounds and their cytotoxicity (CC50) are both calculated from dose-response curves. The selectivity of the antiviral effect is represented by the selectivity index (SI), calculated by dividing the CC50 (cytotoxic dose for 50% of the cells) by the EC50 (antiviral activity for 50% of the cells).
Automated tetrazolium-based colorimetric assays were used for determination of EC50 and CC50 of test compounds. Flat-bottom, 96-well plastic microtiter trays were filled with 180 μl of Eagle's Basal Medium, supplemented with 5% FCS (0% for FLU) and 20 mM Hepes buffer. Subsequently, stock solutions (7.8× final test concentration) of compounds were added in 45 μl volumes to a series of triplicate wells so as to allow simultaneous evaluation of their effects on virus- and mock-infected cells. Five five-fold dilutions were made directly in the microtiter trays using a robot system. Untreated virus controls, and HeLa cell controls were included in each test. Approximately 100 TCID50 of Respiratory Syncytial Virus was added to two of the three rows in a volume of 50 μl. The same volume of medium was added to the third row to measure the cytotoxicity of the compounds at the same concentrations as those used to measure the antiviral activity. After two hours of incubation, a suspension (4×10^5 cells/ml) of HeLa cells was added to all wells in a volume of 50 μl. The cultures were incubated at 37° C. in a 5% CO2 atmosphere. Seven days after infection the cytotoxicity and the antiviral activity was examined spectrophotometrically. To each well of the microtiter tray, 25 μl of a solution of MTT (3-(4,5-dimethylthiazol-2-yl)-2,5-diphenyltetrazolium bromide) was added. The trays were further incubated at 37° C. for 2 hours, after which the medium was removed from each cup. Solubilization of the formazan crystals was achieved by adding 100 μl 2-propanol. Complete dissolution of the formazan crystals were obtained after the trays have been placed on a plate shaker for 10 min. Finally, the absorbances were read in an eight-channel computer-controlled photometer (Multiskan MCC, Flow Laboratories) at two wavelengths (540 and 690 nm). The absorbance measured at 690 nm was automatically subtracted from the absorbance at 540 nm, so as to eliminate the effects of non-specific absorption.

[2] = RSV-infected HeLa cells, MTT readout seven days after infection, −log of EC50 in molar units
[3] = pEC50 (−log of EC50 when expressed in molar units), protection against RSV cytopathology

melting point [°C] | Compound | EC50 [1, 2] [nM] | Activity [1, 3] | other results
170 | Cc1ccc(S(=O)(=O)CCO)c(NCc2ccc3nc(NCCCN4CCOCC4)n(Cc4nc(C)ccc4O)c3c2)c1 [Compound 12] | 0.251 |  | 
199 | Cc1cc(C)cc(NCc2ccc3nc(NCCCN4CCOCC4)n(Cc4nc(C)ccc4O)c3c2)c1 [Compound 23, 2-[6-[(3,5-dimethyl-phenylamino)-methyl]-2-(3-morpholin-4-yl-propylamino)-benzoimidazol-1-ylmethyl]-6-methyl-pyridin-3-ol] | 1 |  | 
114 | Cc1ccc(O)c(Cn2c(NCCCN3CCOCC3)nc3ccc(CNc4c(C)cc(CCC#N)cc4C)cc32)n1 [Compound 49, 3-(4-{[3-(3-hydroxy-6-methyl-pyridin-2-ylmethyl)-2-(3-morpholin-4-yl-propylamino)-3H-benzoimidazol-5-ylmethyl]-amino}-3,5-dimethyl-phenyl)-propionitrile] | 39.8 |  | 
225 | Cc1ccc(I)c(NCc2ccc3nc(NCCCN4CCOCC4)n(Cc4nc(C)ccc4O)c3c2)c1 [Compound 50] | 50.1 |  | 
180 | Cc1cc(C)cc(N(CCO)Cc2ccc3nc(NCCCN4CCOCC4)n(Cc4nc(C)ccc4O)c3c2)c1 [Compound 58, 2-[6-{[(3,5-dimethyl-phenyl)-(2-hydroxy-ethyl)-amino]-methyl}-2-(3-morpholin-4-yl-propylamino)-benzimidazol-1-ylmethyl]-6-methyl-pyridin-3-ol] | 0.398 |  | 
170 | Cc1cc(C)cc(N(CCCC(N)=O)Cc2ccc3nc(NCCCN4CCOCC4)n(Cc4nc(C)ccc4O)c3c2)c1 [Compound 59, 2-[6-{[(3,5-dimethyl-phenyl)-(3-aminocarbonyl-propyl)-amino]-methyl}-2-(3-morpholin-4-yl-propylamino)-benzimidazol-1-ylmethyl]-6-methyl-pyridin-3-ol] | 0.251 |  | 
121 | Cc1cc(C)cc(N(CCCC(=O)O)Cc2ccc3nc(NCCCN4CCOCC4)n(Cc4nc(C)ccc4O)c3c2)c1 [Compound 62, 4-{(3,5-dimethyl-phenyl)-[3-(3-hydroxy-6-methyl-pyridin-2-ylmethyl)-2-(3-morpholin-4-yl-propylamino)-3H-benzoimidazol-5-ylmethyl]-amino}-butyric acid] | 0.398 |  | 
196 | Cc1cc(C)cc(N(CCN)Cc2ccc3nc(NCCCN4CCOCC4)n(Cc4nc(C)ccc4O)c3c2)c1 [Compound 66, 2-[6-{[(2-amino-ethyl)-(3,5-dimethyl-phenyl)-amino]-methyl}-2-(3-morpholin-4-yl-propylamino)-benzoimidazol-1-ylmethyl]-6-methyl-pyridin-3-ol] | 1.26 |  | 
130 | CCOC(=O)CCCN(Cc1ccc2nc(NCCCN3CCOCC3)n(Cc3nc(C)ccc3O)c2c1)c1cc(C)cc(C)c1 [Compound 71, 4-{(3,5-dimethyl-phenyl)-[3-(3-hydroxy-6-methyl-pyridin-2-ylmethyl)-2-(3-morpholin-4-yl-propylamino)-3H-benzoimidazol-5-ylmethyl]-amino}-butyric acid ethyl ester] | 2.51 |  | 
162 | Cc1ccc(O)c(Cn2c(NCCCN3CCOCC3)nc3ccc(Cc4c(C)cc(NCCO)cc4C)cc32)n1 [Compound 143, 2-[6-[4-(2-hydroxy-ethylamino)-2,6-dimethylbenzyl]-2-(3-morpholin-4-yl-propylamino)-benzoimidazol-1-ylmethyl]-6-methyl-pyridin-3-ol] | 10 |  | 
168 | CCn1ncc(Cc2ccc3nc(NCCCN4CCOCC4)n(Cc4nc(C)ccc4O)c3c2)c1NCCO [Compound 152] | 7.94 |  | 
212 | Cc1ccc2c(c1)N(Cc1ccc3nc(NCCCN4CCOCC4)n(Cc4nc(C)ccc4O)c3c1)CC2 [Compound 153] | 50.1 |  | 
228 | Cc1cc(C)c2nc(NCCCN3CCOCC3)n(Cc3nc(C)ccc3O)c2c1 [Compound 154, 2-[4,6-dimethyl-2-(3-morpholin-4-yl-propylamino)-benzoimidazol-1-yl-methyl]-6-methyl-pyridin-3-ol] | 126 |  | 
234 | Cc1cc(C)c2c(c1)nc(NCCCN1CCOCC1)n2Cc1nc(C)ccc1O [Compound 156, 2-[5,7-dimethyl-2-(3-morpholin-4-yl-propylamino)-benzoimidazol-1-ylmethyl]-6-methyl-pyridin-3-ol] | 12600 |  | 
170 | Cc1cccc(NC(=O)c2ccc3c(c2)nc(NCCCN2CCOCC2)n3Cc2nc(C)ccc2O)c1 [Compound 158] | > 100000 |  | 
168 | Cc1cccc(NC(=O)c2ccc3nc(NCCCN4CCOCC4)n(Cc4nc(C)ccc4O)c3c2)c1 [Compound 159] | 20000 |  | 
 | C#Cc1cccc(NCc2ccc3nc(NCCCN4CCOCC4)n(Cc4nc(C)c(C)nc4C)c3c2)c1 [Compound 290] |  | 7 | 
 | Cc1nc(C)c(Cn2c(NCCCN3CCOCC3)nc3ccc(CNc4ccc(C(N)=O)cc4)cc32)nc1C [Compound 291] |  | 7 | 
 | Cc1cccc(NCc2ccc3c(c2)nc(NCCCN2CCOCC2)n3C2CCCc3nc(C)c(C)nc32)c1CCO (centres unmarked) [Compound 292] |  | 7 | 
 | Cc1cccc(NCc2ccc3c(c2)nc(NCCCN2CCOCC2)n3C2CCCc3nc(C)c(C)nc32)c1CO (centres unmarked) [Compound 293] |  | 7 | 
 | OCc1ccc2c(c1)nc(NCCCN1CCOCC1)n2Cc1cccc(Br)n1 [Compound 294] |  | 6.9 | 
 | Cc1cccc(NCc2ccc3nc(NCCCN4CCOCC4)n(Cc4cccc5c4ncn5C)c3c2)c1 [Compound 295] |  | 6.9 | 

melting point [°C] | Compound | EC50 [1, 2] [nM] | Activity [1, 3] | other results
 | Cn1cnc2c(Cn3c(NCCCN4CCOCC4)nc4ccc(CNc5ccc(C(N)=O)cc5)cc43)cccc21 [Compound 296] |  | 6.9 | 
 | COc1ccc(C)nc1Cn1c(NCCCN2CCOCC2)nc2ccc(CNc3cccc(Br)c3)cc21 [Compound 297] |  | 6.9 | 
 | COc1ccc(C)nc1Cn1c(NCCCN2CCOCC2)nc2ccc(CNc3cccc(C)c3CO)cc21 [Compound 298] |  | 6.9 | 
 | Cc1nc(C)c(Cn2c(NCCCN3CCOCC3)nc3ccc(CNc4ccccc4CCN4CCOCC4)cc32)nc1C [Compound 299] |  | 6.9 | 
 | Cc1nc(C)c(Cn2c(NCCCN3CCOCC3)nc3ccc(CNc4cccc(CCO)c4)cc32)nc1C [Compound 300] |  | 6.9 | 
 | Cc1ccc(CCCO)c(NCc2ccc3c(c2)nc(NCCCN2CCOCC2)n3Cc2ncccc2O)c1 [Compound 301] |  | 6.8 | 
 | Cc1cc(C)cc(N(CCCC(N)=O)Cc2ccc3nc(NCCCN4CCOCC4)n(Cc4ccc(F)cc4)c3c2)c1 [Compound 315] |  | 6.5 | 
 | Cc1ccc(CCCO)c(NCc2ccc3c(c2)nc(NCCCN2CCOCC2)n3Cc2cccc3c2ncn3C)c1 [Compound 328] |  | 5.8 | 
 | Cc1nc2c(nc1C)C(n1c(NCCCN3CCOCC3)nc3cc(CNc4cc(Cl)cc(Cl)c4)ccc31)CCC2 (centres unmarked) [Compound 331] |  | 5.7 | 
 | Cc1cccc(Cn2c(NCCCN3CCOCC3)nc3ccc(CNc4ccccc4CCO)cc32)n1 [Compound 333] |  | 5.5 | 
 | Cc1cc(C)cc(NCc2ccc3nc(NCCCN4CCOCC4)n(Cc4cccc(C)n4)c3c2)c1 [Compound 334] |  | 5.5 | 
 | Cc1cccc(Cn2c(NCCCN3CCOCC3)nc3ccc(CNc4cccc(C)c4CCO)cc32)n1 [Compound 335] |  | 5.5 | 
 | Cc1nc2c(nc1C)C(n1c(NCCCN3CCOCC3)nc3cc(CO)ccc31)CCC2 (centres unmarked) [Compound 336] |  | 5.4 | 
 | Cc1cccc(NCc2ccc3nc(NCCCN4CCOCC4)n(Cc4cccc(C)n4)c3c2)c1 [Compound 338] |  | 5.4 | 
 | Cc1nc2c(nc1C)C(n1c(NCCCN3CCOCC3)nc3cc(CNc4ccccc4C(N)=O)ccc31)CCC2 (centres unmarked) [Compound 340] |  | 5.3 | 
 | Cc1cccc(Cn2c(NCCCN3CCOCC3)nc3ccc(CNc4ccccc4CCN4CCOCC4)cc32)n1 [Compound 345] |  | 5 | 
 | COc1ccc(C)nc1Cn1c(NCCCN2CCOCC2)nc2ccc(CO)cc21 [Compound 346] |  | 4.9 | 
 | Cc1cccc(Cn2c(NCCCN3CCOCC3)nc3ccc(CNc4cccc(C)c4CO)cc32)n1 [Compound 347] |  | 4.9 | 
 | COc1ccc(C)nc1Cn1c(NCCCN2CCOCC2)nc2cc(CNc3cc(C)ccc3CCCO)ccc21 [Compound 348] |  | 4.8 | 
 | Cc1ccc(CCCO)c(NCc2ccc3c(c2)nc(NCCCN2CCOCC2)n3Cc2cccc(C)n2)c1 [Compound 350] |  | 4.7 | 
 | Cc1ccc(O)c(Cn2c(NCCCN3CCOCC3)nc3ccccc32)n1 [compound 155] |  |  | Activity [1, 2]: 6.8
